According to patent US5932417A, “Method of screening compounds for controlling capacitative calcium ion entry into mammalian cells” (priority 1996, dated 1999):
Entries after “also recorded” stand apart in the source; their conditions may differ.

Experiments:
M5 muscarinic receptor [1] = assay: Carbachol-induced capacitative Ca2+ influx in Ltk- cell lines expressing the M5 receptor (Fura2); type: cell-based; conditions: control Ltk- cell lines with M5 receptor only; average±SD, 20 cells each of 5 clones
Method: Mouse fibroblast Ltk^- cells (3×10^6 cells/100 mm dish) were transfected by the calcium phosphate/glycerol shock method with 5 μg each of the plasmids with the antisense cDNAs and 0.5 μg of the pcDNA3 carrying the M5 receptor. The control cells received only the M5 muscarinic receptor cDNA in pcDNA3. One day after transfection, the cells were trypsinized and diluted with Minimum Essential Medium--α medium containing 10% heat-inactivated fetal bovine serum, 50 units/ml penicillin, 50 μg/ml streptomycin, and 400 μg/ml G418 (GIBCO). Serial 1:4 dilutions of the cells were transferred into 96-well plates and G418 resistant clones were allowed to develop for two weeks in the G41 8-containing medium. Single colonies were then expanded and the cells used for Fura2 fluorescence measurement of muscarinic receptor induced [Ca^2+ ]i transients. […]
Intracellular Ca^2+ transients were measured in individual cells by fluorescence videomicroscopy using the Attofluor Digital Imaging and Photometry attachment of a Carl Zeiss Axiovert inverted microscope. […] [Ca^2+ ]i in individual cells was monitored at room temperature exciting Fura2 alternatingly at 334 and 380 nm and recording emitted fluorescence at 520 nm. […]

[2] = system: CCE endogenous to COS cells; type: cell-based
Method: Intracellular Ca^2+ transients were measured in individual cells by fluorescence videomicroscopy using the Attofluor Digital Imaging and Photometry attachment of a Carl Zeiss Axiovert inverted microscope. Cells (COS-M6 or L) were grown on circular coverslips, rinsed and incubated with 5 μM Fura2/AM (Molecular Probes) in Hepes buffered saline (HPSS: 120 mM NaCl, 5.3 mM KCl, 0.8 mM MgSO4, 1.8 mM CaCl2, 11.1 mM glucose, 20 mM Hepes-Na, pH 7.4) at 37° C. for 30 min and then washed with HPSS twice at room temperature. The coverslips with the cells were then clamped into a circular open-bottom chamber and mounted onto the stage of the microscope. [Ca^2+ ]i in individual cells was monitored at room temperature exciting Fura2 alternatingly at 334 and 380 nm and recording emitted fluorescence at 520 nm. […] Data from 15 to 30 individual cells were thus collected per experiment and experiments were repeated until data from sufficient cells were collected to generate an ensemble average that was calculated after transfer into Microsoft Excel 5.0. […]
For assessment of the rate at which [Ca^2+ ]i falls after an initial stimulation with agonist, t=0 is the time of agonist addition; for assessment of rate of influx of Ca^2+ into cells in which Ca^2+ stores had been depleted by agonist, t=0 is the time of Ca^2+ readdition. t1/2 /values were obtained by fitting the function A=A°exp(-t·ln2/t1/2)+B to the data points shown. […]

[3] = system: endogenous TG-stimulated Ca2+ entry of COS cells; assay: Thapsigargin (store depletion)-stimulated Ca2+ entry in control COS cells; type: cell-based; conditions: 250 μM La3+, 500 nM TG, 1.8 mM Ca2+ added
Method: (§1) Intracellular Ca^2+ transients were measured in individual cells by fluorescence videomicroscopy using the Attofluor Digital Imaging and Photometry attachment of a Carl Zeiss Axiovert inverted microscope. Cells (COS-M6 or L) were grown on circular coverslips, rinsed and incubated with 5 μM Fura2/AM (Molecular Probes) in Hepes buffered saline (HPSS: 120 mM NaCl, 5.3 mM KCl, 0.8 mM MgSO4, 1.8 mM CaCl2, 11.1 mM glucose, 20 mM Hepes-Na, pH 7.4) at 37° C. for 30 min and then washed with HPSS twice at room temperature. The coverslips with the cells were then clamped into a circular open-bottom chamber and mounted onto the stage of the microscope. [Ca^2+ ]i in individual cells was monitored at room temperature exciting Fura2 alternatingly at 334 and 380 nm and recording emitted fluorescence at 520 nm. All reagents were diluted to their final concentrations in HPSS and applied to the cells by surface perfusion. The duration of exposure to each reagent mixture is indicated by the horizontal lines above the graphs depicting the changes in [Ca^2+ ]i as a function of time. […] Data from 15 to 30 individual cells were thus collected per experiment and experiments were repeated until data from sufficient cells were collected to generate an ensemble average that was calculated after transfer into Microsoft Excel 5.0. […]

Htrp3 [4] = target: T1, Htrp3 (Homo sapiens, UniProt Q13507); type: cell-based; set-up: The full length cDNAs encoding the M5 muscarinic receptor (32), Htrp1 (29), Htrp3 and murine luteinizing hormone receptor; expressed in transfected cells; host or cells: COS-M6
T1 sequence (Q13507 1-848 isoform Q13507-3): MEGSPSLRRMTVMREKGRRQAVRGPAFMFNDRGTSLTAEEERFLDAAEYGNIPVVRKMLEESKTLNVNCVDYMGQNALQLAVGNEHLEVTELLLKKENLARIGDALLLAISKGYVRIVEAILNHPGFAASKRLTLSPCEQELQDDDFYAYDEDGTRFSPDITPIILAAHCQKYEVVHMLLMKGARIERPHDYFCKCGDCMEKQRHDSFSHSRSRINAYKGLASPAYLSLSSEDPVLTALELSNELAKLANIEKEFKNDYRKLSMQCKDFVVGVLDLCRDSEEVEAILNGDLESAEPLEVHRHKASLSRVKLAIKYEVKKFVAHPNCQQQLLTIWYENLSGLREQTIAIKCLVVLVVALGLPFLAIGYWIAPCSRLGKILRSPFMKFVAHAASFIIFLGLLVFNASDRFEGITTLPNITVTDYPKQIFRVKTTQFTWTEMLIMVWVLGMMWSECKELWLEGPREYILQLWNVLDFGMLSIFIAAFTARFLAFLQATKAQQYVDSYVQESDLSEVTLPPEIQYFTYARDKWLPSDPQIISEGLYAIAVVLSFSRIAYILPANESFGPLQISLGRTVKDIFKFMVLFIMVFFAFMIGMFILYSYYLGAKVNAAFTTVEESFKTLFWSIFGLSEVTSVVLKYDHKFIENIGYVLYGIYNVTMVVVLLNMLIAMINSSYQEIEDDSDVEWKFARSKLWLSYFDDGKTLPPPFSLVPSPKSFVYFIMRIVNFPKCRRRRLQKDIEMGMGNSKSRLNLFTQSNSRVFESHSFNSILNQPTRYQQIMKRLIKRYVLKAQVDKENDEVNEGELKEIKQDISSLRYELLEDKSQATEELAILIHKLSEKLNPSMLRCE
Method: Intracellular Ca^2+ transients were measured in individual cells by fluorescence videomicroscopy using the Attofluor Digital Imaging and Photometry attachment of a Carl Zeiss Axiovert inverted microscope. Cells (COS-M6 or L) were grown on circular coverslips, rinsed and incubated with 5 μM Fura2/AM (Molecular Probes) in Hepes buffered saline (HPSS: 120 mM NaCl, 5.3 mM KCl, 0.8 mM MgSO4, 1.8 mM CaCl2, 11.1 mM glucose, 20 mM Hepes-Na, pH 7.4) at 37° C. for 30 min and then washed with HPSS twice at room temperature. The coverslips with the cells were then clamped into a circular open-bottom chamber and mounted onto the stage of the microscope. [Ca^2+ ]i in individual cells was monitored at room temperature exciting Fura2 alternatingly at 334 and 380 nm and recording emitted fluorescence at 520 nm. All reagents were diluted to their final concentrations in HPSS and applied to the cells by surface perfusion. […] The system allows data acquisition from up to 99 user-defined variably-sized regions of interest per field of view. Data from 15 to 30 individual cells were thus collected per experiment and experiments were repeated until data from sufficient cells were collected to generate an ensemble average that was calculated after transfer into Microsoft Excel 5.0. […]
For assessment of the rate at which [Ca^2+ ]i falls after an initial stimulation with agonist, t=0 is the time of agonist addition; for assessment of rate of influx of Ca^2+ into cells in which Ca^2+ stores had been depleted by agonist, t=0 is the time of Ca^2+ readdition. t1/2 /values were obtained by fitting the function A=A°exp(-t·ln2/t1/2)+B to the data points shown.
Cells that had been transfected with expression vectors carrying the M5 receptor and, as appropriate, either the newly cloned Htrp3 cDNA or the previously cloned Htrp1 cDNA (29), were grown on coverslips, loaded with the florescent Ca^2+ indicator dye Fura2 and tested for a response to CCh 40-48 hours after transfection. […] Changes in [Ca^2+ ]i as a function of time were recorded from individual cells, averaged and fitted by a first order decay function plus an offset.

Htrp3 [5] = target: T1, Htrp3; assay: Thapsigargin (store depletion)-stimulated Ca2+ entry in Htrp3-transfected COS cells; type: cell-based; set-up: The full length cDNAs encoding the M5 muscarinic receptor (32), Htrp1 (29), Htrp3 and murine luteinizing hormone receptor; expressed in transfected cells; host or cells: COS-M6; conditions: 250 μM La3+; 500 nM TG, 1.8 mM Ca2+ added
Method: as §1

[6] = system: CCE endogenous to the HEK 293 cell; assay: Carbachol-stimulated endogenous CCE in control HEK 293 cells; type: cell-based, human; conditions: 25 μM SKF 96365
From the text: (§2) Trp proteins can be expressed in cells by standard recombinant means such as described in Innamoratti et al. (57), Gudermann et al. (58), Zhu et al. (59) and Ca^2+ influx monitored in single cells as described in Zhu et al. (30) or in a population of cells as described in Liao et al. (32). By doing this in the absence and presence of test compounds of which the effect on trp-mediated CCE can then be determined. An example is shown below (FIGS. 1 and 2) where human embryonic kidney cells (HEK-293 cells) expressing Htrp3 in stable form (HEKt3-9) are stimulated with carbachol and CCE is measured upon readdition of Ca^2+ to the extracellular medium. […] Not only agents that block calcium entry due to trp expression but also agents that stimulate calcium entry due to trp can be monitored in this way.
(§3) In the above examples, cell were suspended in extracellular solution at a concentration of 20×10^6 cells/ml, loaded with Fura2AM (5 μM, 30 min), washed with solution nominally free of calcium, twice, and suspended at 2×10^6 cells/ml. Intracellular Ca^2+ concentrations were then monitored as described in Liao et al (32). Times and concentrations of additions are depicted by the bars in the Figures. Control cells were HEK 293 cells expressing an unrelated protein. For further details see references 32 and 30. […]

Htrp3 [7] = target: T1, Htrp3; assay: Carbachol-stimulated CCE upon Ca2+ readdition in HEK-293 cells stably expressing Htrp3 (HEKt3-9); type: cell-based; set-up: expressed in transfected cells; conditions: 25 μM SKF 96365, HEKt3-9 cells, Ca2+ readdition (FIG. 2)
From the text: as §2, §3

M5 muscarinic receptor [8] = assay: Carbachol-induced [Ca2+]i plateau in COS-M6 cells transfected with M5 receptor; type: cell-based; conditions: extracellular Ca2+ present
Method: COS-M6 cells were transfected by the DEAE-dextran/chloroquine shock method (14) as described (30) with changes. Sixteen hours prior to transfection, COS-M6 cells that had been kept subconfluent were plated at a density of 2×10^5 cells/well onto 25 mm glass coverslips placed at the bottom of the wells of 6-well plates. Cells in the individual wells were then transfected with 160 μl of transfection mixture (30) containing 0.1 μg pcDNA3 with the M5 receptor cDNA, a three fold molar excess of pcDNA3 vector carrying either the Htrp3, Htrp1 or mLHR cDNA to bring the final concentration of DNA to 4 μg/ml. Cell were used 40 to 48 hours after transfection.
Intracellular Ca^2+ transients were measured in individual cells by fluorescence videomicroscopy using the Attofluor Digital Imaging and Photometry attachment of a Carl Zeiss Axiovert inverted microscope. […] [Ca^2+ ]i in individual cells was monitored at room temperature exciting Fura2 alternatingly at 334 and 380 nm and recording emitted fluorescence at 520 nm. […] Data from 15 to 30 individual cells were thus collected per experiment and experiments were repeated until data from sufficient cells were collected to generate an ensemble average that was calculated after transfer into Microsoft Excel 5.0. […]

Htrp3 [9] = target: T1, Htrp3; assay: Maitotoxin-stimulated Ca2+ influx into HEK 293 cells expressing Htrp3 versus control cells; type: cell-based; set-up: expressed in transfected cells; conditions: HEK 293 cells (FIG. 3)
From the text: as §2, §3

Q: How did the “Increase of [Ca2+]i through the capacitative influx path (at Ca2+ addition vs 30 sec later)” value (M5 muscarinic receptor [1]) turn out when `C[N+](C)(C)CCOC(N)=O` [CCh, carbachol] was run?
A: Its value is 96 ± 5 nM.

Q: With `[La+3]` [La^3+, lanthanum] as the molecule, how does the “Block of endogenous Ca2+ influx” value ([2]; 250 μM La3+, COS cells, agonist-stimulated) read?
A: The value was 80-90%.

Q: And the “Inhibition of CCE endogenous to COS cells” value ([2]; 1 mM La3+, CCh-stimulated, Ca2+ readdition)?
A: The value was “fully inhibited”.

Q: And the “Block of TG-stimulated Ca2+ entry” value [3]?
A: The value was > 80%.

Q: And the “Block of the difference due to Htrp3 influx” value (Htrp3 [4]; 250 μM La3+, Htrp3-transfected COS cells)?
A: The value was 30-40%.

Q: And the “Inhibition of Htrp3-stimulated Ca2+ influx” value (Htrp3 [4]; 1 mM La3+, COS-M6 cells, CCh-stimulated, Ca2+ readdition)?
A: Its value is “fully inhibited”.

Q: And the “Effect on TG-stimulated Ca2+ entry into Htrp3 transfected cells” value (Htrp3 [5])?
A: Its value is “significant residual”.

Q: With `[Ni+2]` [Ni^2+, nickel] as the molecule, how does the “Block of endogenous CCh-stimulated CCE” value ([2]; 2 mM Ni2+, COS cells) read?
A: The value was > 90%.

Q: And the “Inhibition of CCh-stimulated influx due to Htrp3” value (Htrp3 [4]; 2 mM Ni2+, Htrp3-transfected COS cells)?
A: The value was 20%.

Q: What about the “Block of Ca2+ influx in Htrp3 cells” value (Htrp3 [4]; 10 mM Ni2+, Htrp3-transfected COS cells) of the same molecule?
A: The value was 85%.

Q: How did the “Sensitivity of CCE endogenous to the HEK 293 cell (control)” value [6] turn out when `COc1ccc(CCCOC(Cn2ccnc2)c2ccc(OC)cc2)cc1` (centres unmarked) [SKF 96365] was run?
A: The value was “much less sensitive”.

Q: And the “Block of CCE due to Htrp3 (extra-CCE)” value (Htrp3 [7])?
A: Its value is “blocks selectively; also recorded: blocked”.

Q: Which “Effect on carbachol-maintained [Ca2+]i plateau” value (M5 muscarinic receptor [8]) does the source give for `CN1[C@@H]2CC[C@H]1C[C@@H](OC(=O)C(CO)c1ccccc1)C2` (some centres unmarked) [atropine] here?
A: The value was “blocked”.

Q: Which “Maitotoxin-stimulated Ca2+ influx, Htrp3-expressing cells versus control cells” value (Htrp3 [9]) does the source give for maitotoxin here?
A: The value was “several fold larger”.
